Results reported in patent US8487072B2, “Compounds for stimulating P-glycoprotein function and uses thereof” (Angiochem Inc., priority 2006, dated 2013).
Like-named read-outs stand apart in the source and are kept apart here.

Experiments:
[1] = tested on: human umbilical vein endothelial cells (HUVEC); test: HUVEC tube formation on Matrigel (angiogenesis in vitro); assay type: cell-based; settings: 40 μg/ml, 18 hours (FIG. 4A)
Description: The effect of these compounds on angiogenesis was evaluated in vitro using human umbilical vein endothelial cells (HUVEC) tube formation on Matrigel. Following transfections, cells were trypsinized and 2.5×10^4 cells were seeded on Matrigel. After cellular adhesion, the medium was removed and 100 μl fresh medium was added with or without 40 μg/ml of either pepCav or pepPgp. Tube formation was evaluated after 18 hours. After incubation, tubular structures were visualized at 60× magnification using a Nikon TMS-F microscope and Northern Eclipse Software.

P-gp [2] = target: P-gp (Homo sapiens, UniProt P08183)
Sequence of P-gp (Homo sapiens, UniProt P08183) (P08183 whole entry): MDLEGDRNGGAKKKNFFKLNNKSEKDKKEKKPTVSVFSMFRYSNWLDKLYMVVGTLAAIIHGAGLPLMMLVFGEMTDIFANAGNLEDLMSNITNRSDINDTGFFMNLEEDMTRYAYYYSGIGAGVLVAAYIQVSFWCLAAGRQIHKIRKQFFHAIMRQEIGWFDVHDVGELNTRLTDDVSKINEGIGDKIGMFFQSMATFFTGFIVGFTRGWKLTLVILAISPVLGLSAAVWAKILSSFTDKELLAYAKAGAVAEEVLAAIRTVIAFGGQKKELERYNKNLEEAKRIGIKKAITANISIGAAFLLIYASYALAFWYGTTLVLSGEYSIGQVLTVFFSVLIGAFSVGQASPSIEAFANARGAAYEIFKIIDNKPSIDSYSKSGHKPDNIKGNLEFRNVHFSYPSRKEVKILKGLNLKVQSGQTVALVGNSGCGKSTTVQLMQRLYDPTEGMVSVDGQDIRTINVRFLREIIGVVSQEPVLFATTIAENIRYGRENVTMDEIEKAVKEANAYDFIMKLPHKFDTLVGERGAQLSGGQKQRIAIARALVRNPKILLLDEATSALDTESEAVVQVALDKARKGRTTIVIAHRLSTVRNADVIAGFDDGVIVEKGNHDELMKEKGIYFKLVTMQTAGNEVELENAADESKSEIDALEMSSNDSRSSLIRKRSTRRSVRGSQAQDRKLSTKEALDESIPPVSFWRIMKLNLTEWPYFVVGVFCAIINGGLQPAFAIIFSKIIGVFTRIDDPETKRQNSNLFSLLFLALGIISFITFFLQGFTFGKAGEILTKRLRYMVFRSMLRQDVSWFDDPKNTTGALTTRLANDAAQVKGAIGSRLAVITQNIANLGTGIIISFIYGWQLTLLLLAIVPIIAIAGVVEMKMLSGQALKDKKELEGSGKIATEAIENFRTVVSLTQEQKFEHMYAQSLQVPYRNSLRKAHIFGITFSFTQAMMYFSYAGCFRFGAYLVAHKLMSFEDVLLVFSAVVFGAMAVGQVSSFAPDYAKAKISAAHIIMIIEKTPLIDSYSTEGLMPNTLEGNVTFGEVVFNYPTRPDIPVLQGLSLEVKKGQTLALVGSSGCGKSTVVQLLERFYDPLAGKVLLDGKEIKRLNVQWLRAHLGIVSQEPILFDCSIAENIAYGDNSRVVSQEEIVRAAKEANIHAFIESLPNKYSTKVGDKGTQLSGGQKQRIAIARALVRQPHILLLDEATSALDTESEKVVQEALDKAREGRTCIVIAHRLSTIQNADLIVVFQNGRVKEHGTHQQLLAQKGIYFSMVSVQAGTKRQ

angiogenesis = test: Matrigel plug assay (angiogenesis in vivo), hemoglobin content; settings: Matrigel with heparin and bFGF under the skin of mice, plug removed after one week; 100 μg/ml in the method, 40 μg/ml in the result sentence (FIG. 4B)
Description: The effect of these compounds on angiogenesis was evaluated in vivo using the Matrigel plug assay. Briefly, Matrigel containing heparin and bFGF was injected under the skin of mice in the presence or absence of 100 μg/ml pepCav and pepPgp. The Matrigel plug was removed after one week. Hemoglobin content in the Matrigel plugs, which corresponds to the vessels formed, was measured.

MDCK-MDR1 cells = test: Cell migration of MDCK-MDR1 cells, Transwell filters; assay type: cell-based, canine; settings: 20 μg/ml, Transwell 8 μm precoated with 0.15% gelatin, 10% serum as chemoattractant (FIGS. 3A, 3B)
Description: The effect of both compounds on cell migration, was determined by the migration of MDCK-MDR1 cells using Transwell filters (Costar; 8 μm pore size) precoated with 0.15% gelatin. Briefly, 1×10^5 cells were resuspended in 100 μl of serum-free medium with or without compounds (20 μg/ml). The lower chamber of the Transwell contained 10% serum used as chemoattractant. Cell migration was determined using a Nikon TMS-F microscope and Northern Eclipse Software. As observed in FIGS. 3A and 3B, pepPgp and pepCav inhibited cells migration of MDCK-MDR1 by 30% and 80%, respectively, as compared to the control.

P-gp [3] = test: Brain uptake of [3H]-Taxol in vivo (P-gp efflux transport at the blood brain barrier); design: species or system mice; settings: peptide 20 μg/ml; for reduction of [3H]-Taxol in the capillaries and in the parenchyma relative to total brain: [3H]-Taxol perfused 5 minutes; for reduction of Taxol passage in the total brain vs control mice: [3H]-Taxol perfused through right jugular vein for 5 minutes, total brain (FIG. 2)
Description: The effect of compounds on P-gp efflux transport activity was investigated in vivo. For this purpose, the brain uptake of [^3H]-Taxol, a specific substrate of P-gp, was measured. [^3H]-Taxol was perfused into the brain through the right jugular vein for 5 minutes in the presence or absence of pepCav or pepPgp at a concentration of 20 μg/ml. Radioactivity of [^3H]-Taxol was analyzed in the total brain, the capillary and the parenchyma.

Sequence | reduction of capillary-like structure formation [1] [%] | accumulation of [3H]-vinblastine as a function of time (P-gp [2]; MDCK-MDR1 cells, 20 μg/ml peptide, different times following treatment (FIG. 1A)) | [3H]-vinblastine accumulation with increasing concentrations of compound (P-gp [2]; MDCK-MDR1 cells, increasing concentrations (FIG. 1B)) | reduction of hemoglobin content in Matrigel plug vs control (bFGF alone) (angiogenesis) [%] | inhibition of cell migration of MDCK-MDR1 vs control (MDCK-MDR1 cells) [%] | reduction of [3H]-Taxol in the capillaries and in the parenchyma relative to total brain (P-gp [3]) | reduction of Taxol passage in the total brain vs control mice (P-gp [3]) [%] | [3H]-vinblastine accumulation with increasing concentrations of compound (P-gp [2])
DGIWKASFTTFTVTKYWFYR [pepCav, exemplary peptide derived from the caveolin-1 scaffolding domain (amino acids 82-101)] | 75 | decreased as a function of time | reduced | 25 | 80 | similar | 50 | 
VFSMFRYSNWLDK [pepPgp] | 40 |  |  | 40 | 30 | similar | 30 | reduced
